The values below come from ChEMBL document CHEMBL1156319, “Synthesis, crystal and antibacterial studies of diversely functionalized tetrahydropyridin-4-ol” (2010).

≈ marks a conversion by molar mass, not a printed value.

What all share (format): functional
The subject of test [1] is Staphylococcus aureus. As to the kind of experiment: Antibacterial activity against Staphylococcus aureus LCB0001 by two fold serial dilution method.
The test system of test [2] is Staphylococcus aureus. Kind of test: Antibacterial activity against methicillin-resistant Staphylococcus aureus LCB0002 by two fold serial dilution method.
Test [3] deals with Staphylococcus epidermidis. Kind of test: Antibacterial activity against Staphylococcus epidermidis LCB0003 by two fold serial dilution method.
Test [4] deals with Staphylococcus epidermidis. As to the kind of experiment: Antibacterial activity against methicillin-resistant Staphylococcus epidermidis LCB0004 by two fold serial dilution method.
The test system of test [5] is Enterococcus faecalis. Kind of test: Antibacterial activity against Enterococcus faecalis LCB0005 by two fold serial dilution method.
The test system of test [6] is Enterococcus faecalis. As to the kind of experiment: Antibacterial activity against vancomycin-resistant Enterococcus faecalis LCB0006 by two fold serial dilution method.
For test [7], the system named is Enterococcus faecalis. As to the kind of experiment: Antibacterial activity against vancomycin and Linezolid resistant Enterococcus faecalis LCB0007 by two fold serial dilution method.
For test [8], the system named is Enterococcus faecium. Kind of test: Antibacterial activity against vancomycin-resistant Enterococcus faecium LCB0008 by two fold serial dilution method.
Test [9] deals with Enterococcus faecium. Kind of test: Antibacterial activity against Enterococcus faecium LCB0009 by two fold serial dilution method.
Test [10] deals with Escherichia coli. As to the kind of experiment: Antibacterial activity against Escherichia coli LCB0010 by two fold serial dilution method.
Test [11] concerns Escherichia coli. As to the kind of experiment: Antibacterial activity against Escherichia coli LCB0011 by two fold serial dilution method.
Test [12] has as its system Escherichia coli. Kind of test: Antibacterial activity against Escherichia coli LCB0012 by two fold serial dilution method.
In another test the test system is Pseudomonas aeruginosa. Kind of test: Antibacterial activity against Pseudomonas aeruginosa LCB0013 by two fold serial dilution method.
Another test deals with Klebsiella pneumoniae. Kind of test: Antibacterial activity against Klebsiella pneumoniae LCB0014 by two fold serial dilution method.
The next test has as its system Haemophilus influenzae. Kind of test: Antibacterial activity against Haemophilus influenzae LCB0015 by two fold serial dilution method.
The next test has as its system Moraxella catarrhalis. Kind of test: Antibacterial activity against Moraxella catarrhalis LCB0016 by two fold serial dilution method.

Turning to `N[C@@H]1[C@H]2CN(c3nc4c(cc3F)c(=O)c(C(=O)O)cn4-c3ccc(F)cc3F)C[C@@H]12` [TROVAFLOXACIN], the MIC90 is under 0.0625 µg/mL in the test on Staphylococcus aureus [1]; 2 µg/mL (≈ 4.8 µM) in the test on Staphylococcus aureus [2]; under 0.0625 µg/mL in test [3]; under 0.0625 µg/mL in test [4]; under 0.0625 µg/mL with Enterococcus faecalis [5]; 16 µg/mL (≈ 38.4 µM) against Enterococcus faecalis [6]. Besides, the MIC90 was 16 µg/mL (≈ 38.4 µM) in the test with Enterococcus faecalis [7]; 128 µg/mL (≈ 307 µM) with Enterococcus faecium [8]; 32 µg/mL (≈ 76.9 µM) in the test on Enterococcus faecium [9]; under 0.0625 µg/mL with Escherichia coli [10]; under 0.0625 µg/mL in the test with Escherichia coli [11]; under 0.0625 µg/mL against Escherichia coli [12]. Also, the MIC90 in the test with Pseudomonas aeruginosa is 0.5 µg/mL (≈ 1.2 µM); with Klebsiella pneumoniae, 0.125 µg/mL (≈ 0.3 µM); with Haemophilus influenzae, under 0.0625 µg/mL; in the test with Moraxella catarrhalis, under 0.0625 µg/mL.
Take `CC(=O)NC[C@H]1CN(c2ccc(N3CCOCC3)c(F)c2)C(=O)O1` [LINEZOLID]: the MIC90 against Staphylococcus aureus [1] is 2 µg/mL (≈ 5.93 µM); in the test on Staphylococcus aureus [2], 2 µg/mL (≈ 5.93 µM); in test [3], 4 µg/mL (≈ 11.9 µM); in [4] it was 8 µg/mL (≈ 23.7 µM); against Enterococcus faecalis [5], 4 µg/mL (≈ 11.9 µM); with Enterococcus faecalis [6], 4 µg/mL (≈ 11.9 µM). In addition, the MIC90 in the test with Enterococcus faecalis [7] is 64 µg/mL (≈ 190 µM); against Enterococcus faecium [8], 2 µg/mL (≈ 5.93 µM); with Enterococcus faecium [9] it was 4 µg/mL (≈ 11.9 µM); with Escherichia coli [10], over 128 µg/mL; in the test with Escherichia coli [11], 16 µg/mL (≈ 47.4 µM); against Escherichia coli [12] it was 128 µg/mL (≈ 379 µM). Further, the MIC90 was over 128 µg/mL against Pseudomonas aeruginosa, over 128 µg/mL against Klebsiella pneumoniae, 16 µg/mL (≈ 47.4 µM) against Haemophilus influenzae and 4 µg/mL (≈ 11.9 µM) against Moraxella catarrhalis.
On to `CCOC(=O)C1=C(O)CC(c2ccccc2)N(C(=O)CN2CCN(C)CC2)C1c1ccccc1` (centres undefined), for which the MIC90 is over 128 µg/mL against Staphylococcus aureus [1]; over 128 µg/mL in [3]; over 128 µg/mL against Enterococcus faecalis [5]; 128 µg/mL (≈ 276 µM) in the test on Enterococcus faecium [9]; over 128 µg/mL with Escherichia coli [10]; over 128 µg/mL in the test on Escherichia coli [11]. Also, the MIC90 is over 128 µg/mL in the test on Escherichia coli [12]; over 128 µg/mL in the test on Pseudomonas aeruginosa; over 128 µg/mL against Klebsiella pneumoniae; over 128 µg/mL in the test on Haemophilus influenzae; 32 µg/mL (≈ 69 µM) against Moraxella catarrhalis.
On to `CCOC(=O)C1=C(O)CC(c2ccccc2)N(C(=O)C(C)N2CCSCC2)C1c1ccccc1` (centres undefined), for which the MIC90 (in the test on Staphylococcus aureus [1]; in test [3]; in the test on Enterococcus faecalis [5]; with Enterococcus faecium [9]; against Escherichia coli [10]; against Escherichia coli [11]) was over 128 µg/mL each time. The MIC90 against Escherichia coli [12], with Pseudomonas aeruginosa, against Klebsiella pneumoniae, in the test on Haemophilus influenzae and in the test with Moraxella catarrhalis was over 128 µg/mL throughout.
`CCOC(=O)C1=C(O)CC(c2ccccc2)N(C(=O)CSc2ccc3ccccc3c2)C1c1ccccc1` (centres undefined): the MIC90 with Staphylococcus aureus [1] is over 128 µg/mL; in test [3] it was over 128 µg/mL; with Enterococcus faecalis [5], over 128 µg/mL; against Enterococcus faecium [9], 128 µg/mL (≈ 244 µM); against Escherichia coli [10], over 128 µg/mL; in the test with Escherichia coli [11], over 128 µg/mL. The MIC90 in the test with Escherichia coli [12], in the test with Pseudomonas aeruginosa, against Klebsiella pneumoniae, with Haemophilus influenzae and with Moraxella catarrhalis was over 128 µg/mL each time.
Regarding `CCOC(=O)C1=C(O)CC(c2ccccc2)N(C(=O)CN2CCOCC2)C1c1ccccc1` (centres undefined), the MIC90 (against Staphylococcus aureus [1]; in test [3]; in the test with Enterococcus faecalis [5]; against Enterococcus faecium [9]; against Escherichia coli [10]; with Escherichia coli [11]) was over 128 µg/mL each time. For the same compound, the MIC90 in the test on Escherichia coli [12] was over 128 µg/mL; in the test on Pseudomonas aeruginosa, over 128 µg/mL; against Klebsiella pneumoniae, over 128 µg/mL; against Haemophilus influenzae it was over 128 µg/mL; against Moraxella catarrhalis, 64 µg/mL (≈ 142 µM).
On to `CCOC(=O)C1=C(O)CC(c2ccccc2)N(C(=O)Cn2ccnc2)C1c1ccccc1` (centres undefined), for which the MIC90 against Staphylococcus aureus [1] is 128 µg/mL (≈ 297 µM); in test [3], over 128 µg/mL; with Enterococcus faecalis [5] it was over 128 µg/mL; in the test on Enterococcus faecium [9], over 128 µg/mL; in the test with Escherichia coli [10] it was over 128 µg/mL; with Escherichia coli [11], over 128 µg/mL. For the same compound, the MIC90 was 64 µg/mL (≈ 148 µM) against Escherichia coli [12]; over 128 µg/mL with Pseudomonas aeruginosa; over 128 µg/mL against Klebsiella pneumoniae; over 128 µg/mL against Haemophilus influenzae; 64 µg/mL (≈ 148 µM) with Moraxella catarrhalis.
Regarding `CCOC(=O)C1=C(O)CC(c2ccccc2)N(C(=O)c2ccccc2)C1c1ccccc1` (centres undefined), the MIC90 (in the test on Staphylococcus aureus [1]; in test [3]; against Enterococcus faecalis [5]; against Enterococcus faecium [9]; against Escherichia coli [10]; in the test with Escherichia coli [11]) was over 128 µg/mL throughout. Moreover, the MIC90 was 64 µg/mL (≈ 150 µM) against Escherichia coli [12]; over 128 µg/mL with Pseudomonas aeruginosa; over 128 µg/mL with Klebsiella pneumoniae; over 128 µg/mL in the test on Haemophilus influenzae; over 128 µg/mL in the test with Moraxella catarrhalis.
For the compound `CCOC(=O)C1=C(O)CC(c2ccccc2)N(C(=O)C(C)N2CCN(C)CC2)C1c1ccccc1` (centres undefined), the MIC90 (against Staphylococcus aureus [1]; in test [3]; in the test on Enterococcus faecalis [5]; with Enterococcus faecium [9]; in the test on Escherichia coli [10]; against Escherichia coli [11]) was over 128 µg/mL in each case. Also, the MIC90 with Escherichia coli [12] is over 128 µg/mL; against Pseudomonas aeruginosa it was over 128 µg/mL; against Klebsiella pneumoniae, over 128 µg/mL; with Haemophilus influenzae it was over 128 µg/mL; against Moraxella catarrhalis, 64 µg/mL (≈ 134 µM).
